Results on six molecules are retold here after patent US11384099B2, “Pyrazolopyridinone compounds” (Janssen Pharmaceutica NV, priority 2017, dated 2022).

Test [1] deals with T1, human FGFR3 wild type enzyme (cytoplasmic domain) (Homo sapiens, UniProt P22607).
T1 construct: human FGFR3 wild type enzyme (cytoplasmic domain, from Cama Biosciences); purchased Carna Biosciences
The experiment in a line: FGFR3 wild type mobility shift assay (enzymatic assay, Caliper). To be noted: 75 μM ATP, 50 minutes at 30° C. It is filed as biochemical. The method in brief:
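Cytoplasmic-domain FGFR3 (0.04 ng/μL) reacted with 75 μM ATP and 1 μM FL-peptide 30 in HEPES pH 7.4/MgCl2/Brij35/DTT buffer, 1% DMSO final. Incubation 50 min at 30° C, EDTA stop; substrate phosphorylation read by microfluidic mobility shift.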

Test [2] concerns the target T2, human FGFR3 V555M enzyme (cytoplasmic domain carrying V555M mutation) (Homo sapiens, UniProt P22607, V555M).
T2 construct: cytoplasmic domain carrying V555M mutation, from Carna Biosciences; purchased Carna Biosciences
The experiment in a line: FGFR3 V555M mobility shift assay (enzymatic assay, Caliper). To be noted: 30 μM ATP, 45 minutes at 30° C. In kind it is biochemical. In a few lines:
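Cytoplasmic-domain human FGFR3 V555M (0.04 ng/μL) reacted with 30 μM ATP and 1 μM FL-peptide 30 in HEPES pH 7.4, MgCl2, Brij35, DTT, 1% DMSO final. Incubation 45 min at 30 °C, stopped with EDTA. Substrate/product separated and read by mobility shift on a Caliper EZ reader II.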

The subject of test [3] is NIH/3T3 cells transfected with control vector (MOCK). The experiment in a line: NIH/3T3 mock cell proliferation assay (CTG, counter assay). It is filed as cell-based. To be noted: Mus musculus, NIH3T3; 72-hr incubation, CellTiter Glo; counter assay for general toxicity. In a few lines: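 Control-vector NIH/3T3 cells, 30,000/well in DMEM with 10% FBS, exposed 72 h at 37 °C to compound (9 points, 3-fold from 30 μM, 0.3% DMSO). CellTiter-Glo luminescence normalized to survival %; IC50, pIC50 and Hill slope from concentration-response fit.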
For orientation: Cellular ATP, detected with luciferase, serves as a proxy for viable cell number.

The target in test [4] is T3, NIH/3T3 cells overexpressing FGFR3 WT-TACC3 fusion protein (Homo sapiens, UniProt P22607).
T3 construct: NIH/3T3 FGFR3 WT-TACC3 CTG (IC50); other: 72-hr incubation, CellTiter Glo; fused on or other part: C-terminal coiled-coil part of TACC3 (part of the key, as a fusion known from patients); Q9Y6A5 (Transforming acidic coiled-coil-containing protein 3)
The experiment in a line: NIH/3T3 FGFR3 WT-TACC3 cell proliferation assay (CTG). In kind it is cell-based. To be noted: 72-hr incubation, CellTiter Glo; read-out: NIH/3T3 FGFR3 WT-TACC3 CTG (IC50). As for the experimental part: NIH/3T3 FGFR3 WT-TACC3 Cell Proliferation Assay
(§1) In day 1, 90 μL of cell suspension (NIH/3T3 cells overexpressing FGFR3 WT-TACC3 fusion protein) (total 30,000 cells per well in growth medium (DMEM containing 1% Glutamax, 10% FBS and 1% Pen/Strep)) was seeded in a 96-well plate and then incubated overnight at 37° C. and 5% CO2. In day 2, 10 μL of growth medium containing 10-fold stock solution of testing compound was added into cell cultures (9 dose points with 4× serial dilution, starting with 10 μM, 0.1% DMSO final). After 72-hr incubation at 37° C. and 5% CO2, in day 5 a volume of 50 μL CellTiter Glo (CTG) reagent was added into cell-containing 96-well plate and the plate was incubated at room temperature for 10 minutes before RLUs (relative light unit) were measured on a microplate reader with luminescence detection module. The RLU value was normalized to survival % and concentration-response curve was plotted using Prism to calculate IC50 (M), pIC50 (−log IC50) and HillSlope value.

In test [5] the test system is NIH/3T3 cells overexpressing FGFR3 WT-TACC3 fusion protein. In words: NIH/3T3 FGFR3 WT-TACC3 cellular phospho-ERK assay (in vitro PD assay). To be noted: Mus musculus, NIH3T3; 1-hr incubation, AlphaLISA SureFire Ultra p-ERK1/2; read-out: NIH/3T3 FGFR3 WT-TACC3 pERK (IC50). It is filed as cell-based. As for the experimental part: NIH/3T3 FGFR3 WT-TACC3 Cellular Phospho-ERK Assay (In Vitro PD Assay)
(§2) 50 uL of cell suspension (NIH/3T3 cells overexpressing FGFR3 WT-TACC3 fusion protein) (total 10,000 cells per well in growth medium (DMEM containing 1% Glutamax, 10% FBS and 1% Pen/Strep)) was seeded in a 384-well plate. After overnight incubation at 37° C. and 5% CO2, 5.5 μL of growth medium containing 10× testing compound was added into cell cultures (10 dose points with 4× serial dilution, starting with 10 μM, 0.1% DMSO final). After 1-hr incubation at 37° C. and 5% CO2, the medium was depleted and AlphaLISA SureFire Ultra p-ERK1/2 (Thr202/Tyr204) Assay Kit (from PerkinElmer) was applied for phospho-ERK level detection according to the kit instructions. The RFUs (relative fluorescence units were measured on EnVision microplate reader (ex. 680 nm, em. 615 nm) and concentration-response curve was plotted using Prism to calculate IC50 (M), pIC50 (−log IC50) and HillSlope value.
Background: Alpha assays give light when donor and acceptor beads are brought close together.

In test [6] the test system is NIH/3T3 cells overexpressing FGFR3 V555M-TACC3 fusion protein. In words: NIH/3T3 FGFR3 V555M-TACC3 cellular phospho-ERK assay (in vitro PD assay). In kind it is cell-based. To be noted: Mus musculus, NIH3T3; 1-hr incubation, AlphaLISA SureFire Ultra p-ERK1/2; read-out: NIH/3T3 FGFR3 V555M-TACC3 pERK (IC50). As for the experimental part: NIH/3T3 FGFR3 V555M-TACC3 Cellular Phospho-ERK Assay (In Vitro PD Assay)
as §2, with “μL” for “uL”, “V555M-TACC3” for “WT-TACC3”

Test [7] has as its target T4, NIH/3T3 cells overexpressing FGFR3 V555M-TACC3 fusion protein (Homo sapiens, UniProt P22607, V555M, cells depend on it).
T4 construct: NIH/3T3 FGFR3 V555M-TACC3 CTG (IC50); other: 72-hr incubation, CellTiter Glo; fused on or other part: C-terminal coiled-coil part of TACC3 (part of the key, as a fusion known from patients); Q9Y6A5 (Transforming acidic coiled-coil-containing protein 3)
In words: NIH/3T3 FGFR3 V555M-TACC3 cell proliferation assay (CTG). In kind it is cell-based. To be noted: 72-hr incubation, CellTiter Glo; read-out: NIH/3T3 FGFR3 V555M-TACC3 CTG (IC50). As for the experimental part:
NIH/3T3 FGFR3 V555M-TACC3 Cell Proliferation Assay
as §1, with “V555M-TACC3” for “WT-TACC3”

T1 sequence (P22607 397-806 limits assumed): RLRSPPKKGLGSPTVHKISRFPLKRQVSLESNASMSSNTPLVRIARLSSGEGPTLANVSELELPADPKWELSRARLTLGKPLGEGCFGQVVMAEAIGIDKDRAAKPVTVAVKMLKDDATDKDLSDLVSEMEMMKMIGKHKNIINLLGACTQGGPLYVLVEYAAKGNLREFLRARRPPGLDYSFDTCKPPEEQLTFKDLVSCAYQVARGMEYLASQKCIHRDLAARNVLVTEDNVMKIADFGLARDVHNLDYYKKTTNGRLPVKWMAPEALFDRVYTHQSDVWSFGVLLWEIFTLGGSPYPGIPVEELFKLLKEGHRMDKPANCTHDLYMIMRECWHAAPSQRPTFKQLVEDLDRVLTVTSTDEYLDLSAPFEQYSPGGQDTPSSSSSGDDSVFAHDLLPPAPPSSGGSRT
T2 sequence (P22607 397-806 V555M limits assumed): as the sequence (P22607 397-806 limits assumed) above, with V159M counted along it
T4 sequence (P22607 whole entry V555M, the tested form may be a part): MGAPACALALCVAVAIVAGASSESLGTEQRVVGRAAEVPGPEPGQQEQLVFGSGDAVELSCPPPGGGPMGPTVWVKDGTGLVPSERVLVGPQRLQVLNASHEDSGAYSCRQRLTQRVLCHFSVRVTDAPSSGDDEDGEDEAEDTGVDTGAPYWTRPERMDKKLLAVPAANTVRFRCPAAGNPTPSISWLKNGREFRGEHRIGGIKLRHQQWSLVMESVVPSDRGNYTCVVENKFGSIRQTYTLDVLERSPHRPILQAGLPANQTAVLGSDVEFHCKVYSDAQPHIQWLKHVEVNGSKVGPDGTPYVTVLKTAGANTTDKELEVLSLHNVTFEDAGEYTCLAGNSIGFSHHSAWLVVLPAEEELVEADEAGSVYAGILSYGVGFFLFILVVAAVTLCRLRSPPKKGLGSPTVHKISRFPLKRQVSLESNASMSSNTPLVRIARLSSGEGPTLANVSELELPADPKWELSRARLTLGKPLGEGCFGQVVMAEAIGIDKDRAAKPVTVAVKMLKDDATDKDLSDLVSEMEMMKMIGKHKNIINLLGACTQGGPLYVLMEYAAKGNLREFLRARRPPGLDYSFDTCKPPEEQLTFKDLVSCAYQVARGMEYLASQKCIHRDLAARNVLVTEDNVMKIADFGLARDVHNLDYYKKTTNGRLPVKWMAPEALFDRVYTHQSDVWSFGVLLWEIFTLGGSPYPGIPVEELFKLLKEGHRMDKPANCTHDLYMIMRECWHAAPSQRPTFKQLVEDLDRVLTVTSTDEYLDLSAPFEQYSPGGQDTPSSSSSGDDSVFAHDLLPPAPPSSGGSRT
T3 sequence (P22607 whole entry, change not shown, the tested form may be a part): as the sequence (P22607 whole entry V555M, the tested form may be a part) above, with M555V counted along it

Consider `COc1cc2[nH]c(-c3c(N[C@@H](C)c4ncccn4)c4nn(C)cc4[nH]c3=O)nc2c(F)c1OC` [Compound 55, (S)-6-(4-fluoro-5,6-dimethoxy-1H-benzo[d]imidazol-2-yl)-2-methyl-7-((1-(pyrimidin-2-yl)ethyl)amino)-2H-pyrazolo[4,3-b]pyridin-5 (4H)-one], for which the IC50 in test [1] amounted to 0.957 nM; in test [2], 0.392 nM; in test [3], 2280 nM; in test [5], 5.5 nM; in test [6], 5.19 nM. The GI50 in test [4] is 17.4 nM.

In test [3], `CCC(Nc1c(-c2nc3ccc(OCCOC)cc3[nH]2)c(=O)[nH]c2cn(C)nc12)c1ncccn1` (single isomer, unassigned) [Compound 48, (S*)-6-(6-(2-methoxyethoxy)-1H-benzo[d]imidazol-2-yl)-2-methyl-7-((1-(pyrimidin-2-yl)-propyl)amino)-2H-pyrazolo[4,3-b]pyridin-5 (4H)-one] displayed an IC50 of 396 nM. Also, in test [7], the GI50 was found to be 18.5 nM.

As to `COc1cc2nc(-c3c(N[C@@H](C)c4ccccn4)c4nn(C)cc4[nH]c3=O)[nH]c2cc1OC` [Compound 56, (S)-6-(5,6-dimethoxy-1H-benzo[d]imidazol-2-yl)-2-methyl-7-((1-(pyridin-2-yl)ethyl)-amino)-2H-pyrazolo[4,3-b]pyridin-5 (4H)-one], the IC50 in test [1] is 1.56 nM; in test [2] it was 0.296 nM; in test [3], 857 nM; in test [5], 7.92 nM; in test [6], 5.16 nM.

As for `CCOc1cc2nc(-c3c(N[C@@H](C)c4ncccn4)c4nn(CC)cc4[nH]c3=O)[nH]c2cc1OCC` [Compound 52, (S)-6-(5,6-diethoxy-1H-benzo[d]imidazol-2-yl)-2-ethyl-7-((1-(pyrimidin-2-yl)ethyl)-amino)-2H-pyrazolo[4,3-b]pyridin-5 (4H)-one], the IC50 in test [1] was found to be 0.853 nM; in test [2] it was 0.281 nM; in test [3], 653 nM; in test [5], 5.66 nM; in test [6] it was 6.67 nM.

In the case of `COc1ccc2nc(-c3c(N[C@@H](C)c4ncccn4)c4nn(C)cc4[nH]c3=O)[nH]c2c1` (single isomer, unassigned) [Compound 1, (S*)-6-(6-Methoxy-1H-benzo[d]imidazol-2-yl)-2-methyl-7-((1-(pyrimidin-2-yl)ethyl)-amino)-2H-pyrazolo[4,3-b]pyridin-5 (4H)-one], the results for the IC50 in test [3], in test [5] and in test [6] were 987 nM, 3.2 nM and 3.05 nM, respectively.

Take `CCOc1cc2[nH]c(-c3c(N[C@@H](C)c4ncccn4)c4nn(C)cc4[nH]c3=O)nc2cc1OC` [Compound 7, (S)-6-(6-ethoxy-5-methoxy-1H-benzo[d]imidazol-2-yl)-2-methyl-7-((1-(pyrimidin-2-yl)ethyl)amino)-2,4-dihydro-5H-pyrazolo[4,3-b]pyridin-5-one]: the IC50 in test [1] worked out at 0.327 nM; in test [2], 0.183 nM; in test [3] it was 713 nM; in test [5], 3.64 nM; in test [6], 2.79 nM.
